Measured values taken from paper PMC10011331, “Vitamin C transporter SVCT1 serves a physiological role as a urate importer: functional analyses and in vivo investigations” (Pflugers Archiv, 2023).

Tests used:
Type in all cases: cell-based
[1] = biological target: T1, SVCT1 (Homo sapiens, UniProt Q9UHI7); experiment: inhibition of […]-vitamin C uptake in SVCT1-expressing […] cells (urate uptake IC50 […])
T1 construct: gene SLC23A1

[2] = biological target: T1, SVCT1; experiment: as above; remark: listed apart in the source
[3] = biological target: T1, SVCT1; experiment: as above; remark: listed apart in the source
[4] = biological target: T2, URAT1 (Homo sapiens, UniProt Q96S37); experiment: [[…]-14C]-urate uptake in URAT1-expressing HEK293 cells
T2 construct: gene SLC22A12; full-length human URAT1 WT in pEGFP-C1
T2 sequence (Q96S37 1-553): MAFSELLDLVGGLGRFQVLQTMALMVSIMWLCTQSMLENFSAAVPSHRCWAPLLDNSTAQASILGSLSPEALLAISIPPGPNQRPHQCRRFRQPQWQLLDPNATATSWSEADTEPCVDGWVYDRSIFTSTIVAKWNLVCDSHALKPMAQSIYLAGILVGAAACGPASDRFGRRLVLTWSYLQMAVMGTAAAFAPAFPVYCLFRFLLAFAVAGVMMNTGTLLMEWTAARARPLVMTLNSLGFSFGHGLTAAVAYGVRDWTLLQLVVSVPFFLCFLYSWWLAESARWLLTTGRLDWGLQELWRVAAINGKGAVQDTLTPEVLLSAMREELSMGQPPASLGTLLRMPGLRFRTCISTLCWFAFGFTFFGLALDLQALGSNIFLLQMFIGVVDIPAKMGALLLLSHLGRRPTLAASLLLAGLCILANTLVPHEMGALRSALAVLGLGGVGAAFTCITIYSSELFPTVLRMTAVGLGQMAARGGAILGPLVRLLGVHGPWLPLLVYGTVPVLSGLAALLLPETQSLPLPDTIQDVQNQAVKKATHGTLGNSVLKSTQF

[5] = biological target: T3, ABCG2 (Homo sapiens, UniProt Q9UNQ0)
T3 construct: EGFP-ABCG2 in plasma membrane vesicles from 293A cells
T3 sequence (Q9UNQ0 1-655): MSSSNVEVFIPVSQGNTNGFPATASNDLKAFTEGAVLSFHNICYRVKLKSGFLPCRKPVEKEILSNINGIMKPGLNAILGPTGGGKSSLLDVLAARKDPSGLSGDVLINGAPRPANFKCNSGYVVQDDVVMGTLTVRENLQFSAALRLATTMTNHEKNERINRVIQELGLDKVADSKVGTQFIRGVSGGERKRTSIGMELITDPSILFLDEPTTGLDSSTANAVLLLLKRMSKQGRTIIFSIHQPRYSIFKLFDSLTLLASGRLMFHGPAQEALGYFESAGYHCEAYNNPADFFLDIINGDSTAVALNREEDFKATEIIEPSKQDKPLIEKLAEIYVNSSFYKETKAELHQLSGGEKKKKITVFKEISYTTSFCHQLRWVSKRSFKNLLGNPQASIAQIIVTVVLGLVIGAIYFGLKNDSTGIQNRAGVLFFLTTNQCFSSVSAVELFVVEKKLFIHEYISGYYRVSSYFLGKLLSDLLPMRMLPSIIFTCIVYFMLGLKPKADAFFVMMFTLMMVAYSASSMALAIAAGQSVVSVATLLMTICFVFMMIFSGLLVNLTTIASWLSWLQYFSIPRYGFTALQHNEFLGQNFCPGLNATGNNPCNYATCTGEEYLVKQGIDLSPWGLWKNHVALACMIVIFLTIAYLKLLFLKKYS

[6] = biological target: T4, GLUT9a (Homo sapiens, UniProt Q9NRM0); experiment: [[…]-14C]-urate uptake in GLUT9a-expressing cells, high-potassium buffer
T4 construct: gene SLC2A9; full-length human GLUT9a/SLC2A9a WT in pEGFP-N1
T4 sequence (Q9NRM0 1-540): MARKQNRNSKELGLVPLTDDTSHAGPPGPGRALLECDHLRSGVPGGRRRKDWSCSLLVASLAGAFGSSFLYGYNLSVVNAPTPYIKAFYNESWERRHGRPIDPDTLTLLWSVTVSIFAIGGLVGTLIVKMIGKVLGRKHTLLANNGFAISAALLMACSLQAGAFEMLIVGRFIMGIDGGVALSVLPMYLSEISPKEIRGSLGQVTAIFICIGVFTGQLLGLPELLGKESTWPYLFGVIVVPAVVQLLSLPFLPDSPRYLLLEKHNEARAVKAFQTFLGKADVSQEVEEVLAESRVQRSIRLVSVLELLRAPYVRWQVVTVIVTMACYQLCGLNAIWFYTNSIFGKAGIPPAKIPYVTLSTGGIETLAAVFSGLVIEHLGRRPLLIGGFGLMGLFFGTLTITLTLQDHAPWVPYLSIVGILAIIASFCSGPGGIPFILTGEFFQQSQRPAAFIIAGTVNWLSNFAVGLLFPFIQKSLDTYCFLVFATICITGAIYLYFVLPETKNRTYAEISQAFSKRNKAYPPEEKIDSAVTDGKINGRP

[7] = biological target: T5, Svct1 (Mus musculus, UniProt Q9Z2J0); experiment: […]-vitamin C uptake and inhibition of […]-urate uptake in Svct1-expressing HEK293 cells
T5 construct: gene Slc23a1; mouse Svct1 WT, EGFP fusion

[8] = biological target: T1, SVCT1; experiment: […]-vitamin C uptake and inhibition of […]-urate uptake in SVCT1-expressing HEK293 cells

T1 sequence (Q9UHI7 whole entry): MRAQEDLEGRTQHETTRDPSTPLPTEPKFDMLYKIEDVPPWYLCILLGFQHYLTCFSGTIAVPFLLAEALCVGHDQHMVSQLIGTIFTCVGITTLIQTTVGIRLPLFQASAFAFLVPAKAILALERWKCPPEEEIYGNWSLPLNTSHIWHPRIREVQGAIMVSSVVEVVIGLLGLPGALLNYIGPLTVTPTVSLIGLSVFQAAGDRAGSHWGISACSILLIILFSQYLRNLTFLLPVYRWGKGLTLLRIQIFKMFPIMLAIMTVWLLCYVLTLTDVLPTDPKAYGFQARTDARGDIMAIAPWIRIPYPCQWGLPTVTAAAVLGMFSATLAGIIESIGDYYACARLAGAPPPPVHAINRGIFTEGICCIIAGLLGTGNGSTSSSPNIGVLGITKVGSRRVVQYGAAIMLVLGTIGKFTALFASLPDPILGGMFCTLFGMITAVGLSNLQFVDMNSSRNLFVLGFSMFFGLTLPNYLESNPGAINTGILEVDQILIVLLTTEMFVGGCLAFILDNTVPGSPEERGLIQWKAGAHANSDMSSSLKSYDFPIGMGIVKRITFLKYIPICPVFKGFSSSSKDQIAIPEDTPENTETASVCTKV
T5 sequence (Q9Z2J0 whole entry, the tested form may be a part): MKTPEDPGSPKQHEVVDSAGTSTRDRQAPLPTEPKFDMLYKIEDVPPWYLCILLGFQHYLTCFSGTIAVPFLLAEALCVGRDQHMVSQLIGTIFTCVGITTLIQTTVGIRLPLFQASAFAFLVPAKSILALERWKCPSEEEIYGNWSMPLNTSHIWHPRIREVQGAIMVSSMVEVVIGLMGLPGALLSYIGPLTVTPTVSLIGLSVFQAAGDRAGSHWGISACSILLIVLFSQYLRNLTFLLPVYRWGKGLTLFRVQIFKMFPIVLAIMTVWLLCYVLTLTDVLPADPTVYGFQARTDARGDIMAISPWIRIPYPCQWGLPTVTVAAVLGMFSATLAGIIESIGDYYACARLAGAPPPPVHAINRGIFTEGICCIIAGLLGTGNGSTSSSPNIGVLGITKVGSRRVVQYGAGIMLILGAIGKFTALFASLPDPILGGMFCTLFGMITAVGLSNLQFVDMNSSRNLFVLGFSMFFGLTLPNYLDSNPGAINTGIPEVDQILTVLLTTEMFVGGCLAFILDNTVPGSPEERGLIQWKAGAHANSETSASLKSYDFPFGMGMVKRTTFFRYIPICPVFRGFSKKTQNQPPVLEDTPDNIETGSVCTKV

CCc1oc2cc(O)ccc2c1C(=O)c1cc(Br)c(O)c(Br)c1 [6-OH BBR, 6-hydroxybenzbromarone]
IC50 [1]: 2860 nM

CCc1oc2ccccc2c1C(=O)c1cc(Br)c(O)c(Br)c1 [BBR, benzbromarone]
IC50 [2]: 8.39 µM

O=C(c1cc(Cl)c(O)c(Cl)c1)N1CS(=O)(=O)c2ccccc21 [DU, dotinurad]
IC50 [3]: 11.8 µM

O=c1[nH]c(=O)c2[nH]c(=O)[nH]c2[nH]1 [urate]
[8-14C]-urate uptake in URAT1-expressing HEK293 cells [4]: Even under appropriate experimental conditions in which urate transport activities were detected, neither URAT1, GLUT9, nor ABCG2 could transport vitamin C
[8-14C]-urate vesicle transport assay with ABCG2-expressing membrane vesicles [5]: Even under appropriate experimental conditions in which urate transport activities were detected, neither URAT1, GLUT9, nor ABCG2 could transport vitamin C
[8-14C]-urate uptake in GLUT9a-expressing cells, high-potassium buffer [6]: Even under appropriate experimental conditions in which urate transport activities were detected, neither URAT1, GLUT9, nor ABCG2 could transport vitamin C

O=C1O[C@H]([C@@H](O)CO)C(O)=C1O [vitamin C]
IC50 [7]: 130 µM
IC50 [8]: 95.1 µM
